What was measured:
Assay in all cases: acetylesterase assay, absorbance at […] nm, plate reader
Assay type in all cases: biochemical
[1] = biological target: T1, OafA-STM^C-short (Salmonella enterica, UniProt Q8ZNJ3); settings: 10 uM enzyme, 0.5 mM substrate final, 37 C; also acetyl donor for LPS acetylation
T1 construct: periplasmic C-terminal SGNH domain with shortened SGNHext, residues 379-609; N-terminal His-MBP tag (3C-cleavable) removed; expressed in E. coli Origami

[2] = biological target: T2, OafB-SPA^C-short (Salmonella enterica, UniProt A0A0H2WM30); settings: 40 uM enzyme (methods print OafB-STM^C-term), 0.5 mM substrate final, 37 C; also acetyl donor for LPS acetylation
T2 construct: gene SPA0467; periplasmic C-terminal SGNH domain with shortened SGNHext, residues 399-640; codon-optimised gene; N-terminal His-MBP tag (3C-cleavable) removed; expressed in E. coli Origami

[3] = biological target: T3, OafA-STM^C-long (Salmonella enterica, UniProt Q8ZNJ3); settings: 10 uM enzyme, 0.5 mM substrate final, 37 C; also acetyl donor for LPS acetylation
T3 construct: periplasmic C-terminal SGNH domain with full SGNHext, residues 366-609; N-terminal His-MBP tag (3C-cleavable) removed; expressed in E. coli Origami

[4] = biological target: T4, OafB-SPA^C-long (Salmonella enterica, UniProt A0A0H2WM30); settings: 40 uM enzyme (methods print OafB-STM^C-term), 0.5 mM substrate final, 37 C
T4 construct: gene SPA0467; periplasmic C-terminal SGNH domain with full SGNHext, residues 377-640; codon-optimised gene; N-terminal His-MBP tag (3C-cleavable) removed; expressed in E. coli Origami
T4 sequence (A0A0H2WM30 entry or part of it): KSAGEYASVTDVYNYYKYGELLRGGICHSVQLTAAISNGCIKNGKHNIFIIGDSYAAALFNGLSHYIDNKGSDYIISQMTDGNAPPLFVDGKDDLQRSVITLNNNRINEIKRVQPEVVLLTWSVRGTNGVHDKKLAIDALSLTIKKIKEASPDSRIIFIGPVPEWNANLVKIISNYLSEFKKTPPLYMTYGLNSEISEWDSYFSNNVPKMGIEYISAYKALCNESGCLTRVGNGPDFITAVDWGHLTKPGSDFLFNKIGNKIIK

T1 sequence (Q8ZNJ3 entry or part of it): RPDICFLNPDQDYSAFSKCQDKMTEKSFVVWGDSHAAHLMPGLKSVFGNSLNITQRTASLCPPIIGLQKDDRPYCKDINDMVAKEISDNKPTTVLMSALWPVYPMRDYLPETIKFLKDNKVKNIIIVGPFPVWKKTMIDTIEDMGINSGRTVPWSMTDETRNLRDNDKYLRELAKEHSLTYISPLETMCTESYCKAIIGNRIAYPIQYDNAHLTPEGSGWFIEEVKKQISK
T3 sequence (Q8ZNJ3 entry or part of it): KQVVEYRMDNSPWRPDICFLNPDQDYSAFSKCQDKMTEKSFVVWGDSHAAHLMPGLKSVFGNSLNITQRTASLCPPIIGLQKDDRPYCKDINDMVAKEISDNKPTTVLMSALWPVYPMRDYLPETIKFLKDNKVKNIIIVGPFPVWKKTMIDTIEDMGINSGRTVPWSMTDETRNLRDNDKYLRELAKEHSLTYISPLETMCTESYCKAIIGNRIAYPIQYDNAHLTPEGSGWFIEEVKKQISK
T2 sequence (A0A0H2WM30 entry or part of it): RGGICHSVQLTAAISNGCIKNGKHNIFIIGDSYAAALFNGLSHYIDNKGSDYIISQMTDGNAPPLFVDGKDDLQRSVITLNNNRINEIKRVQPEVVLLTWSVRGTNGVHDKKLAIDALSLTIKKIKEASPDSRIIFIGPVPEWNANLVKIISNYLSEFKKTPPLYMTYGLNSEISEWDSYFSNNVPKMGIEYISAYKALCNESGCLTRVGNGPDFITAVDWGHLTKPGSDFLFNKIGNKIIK

For `CC(=O)Oc1ccc([N+](=O)[O-])cc1` [p-nitrophenyl acetate], the “acetylesterase assay, absorbance at 405 nm, plate reader” value (“acetylesterase assay, absorbance” below) [1] was “all constructs via their ability to hydrolyze the ester substrate p-nitrophenyl acetate (pNP-Ac)”, the “acetylesterase assay, absorbance” value [2] was “all constructs via their ability to hydrolyze the ester substrate p-nitrophenyl acetate (pNP-Ac)” and the “acetylesterase assay, absorbance” value [3] was “all constructs via their ability to hydrolyze the ester substrate p-nitrophenyl acetate (pNP-Ac)”. The “acetylesterase assay, absorbance” value [4] was “all constructs via their ability to hydrolyze the ester substrate p-nitrophenyl acetate (pNP-Ac)”.
